# In patent US11603368B2, “Fused thiophene derivatives and their uses” (ENYO PHARMA, priority 2018, dated 2023):
# System: H1N1 (influenza A/New Caledonia/20/99)
# Test: Antiviral effect on A549 cells infected with H1N1
# Assay type: cell-based, H1N1 A/New Caledonia/20/99 virus
# Details: Human A549 cells, MOI of 0.1, 48 h post-infection, MUNANA hydrolysis readout
# Procedure: The antiviral effect of the compounds of the invention has been tested on A549 cell lines infected with H1N1 (influenza A/New Caledonia/20/99).
# Human A549 cells (80,000 cells/well in a 96 well plate) were treated with a range of concentration of test molecules and immediately infected by H1N1 A/New Caledonia/20/99 virus (clinical isolate) at MOI of 0.1 in DMEM/1% Penicillin/streptomycin supplemented with 0.25 μg/ml TPCK trypsin (Sigma) and incubated at 37° C. in 5% CO2. 48 h post-infection, supernatants (25 μl) were collected and transferred into a 96-well black flat-bottom plate, mixed with 25 μl PBS with Ca++/Mg++(Thermo Fisher) and 50 μl of 2′-(4-Methylumbelliferyl)-α-D-N-acetylneuraminic acid sodium salt hydrate stock-solution (20 μM, MUNANA, Sigma). Plates were incubated 1 h at 37° C. and reaction is stopped by adding 100 μl of Stop Solution (glycine 0.1 M pH10.7/25% ethanol). The amount of fluorescent product released by MUNANA hydrolysis (4-MU) was measured in a Tecan spectrophotometer with excitation and emission wavelengths of 365 and 450 nm respectively.
# [1] = Influenza A virus, H1N1, A549, 48 h
Compound,IC50 [1] [µM],IC50 [µM]
O=C(Nc1sc2c(c1C(=O)O)CCCC2)c1ccc(NCC2CCOCC2)cc1 [#216],0.06,
CC(C)(C)C1CCc2c(sc(NC(=O)c3ccccc3)c2C(=O)O)C1 (centres unmarked) [#67],,0.0917
CC1(C)Cc2c(sc(NC(=O)c3ccccc3)c2C(=O)O)CO1 [#116],1.7,
COC(=O)CCCCCOc1ccc(C(=O)Nc2sc3c(c2C(=O)O)CCC(C(C)(C)C)C3)cc1 (centres unmarked) [#172],0.51,
CC(C)(C)C1CCc2c(sc(NC(=O)c3ccc(F)cc3)c2C(=O)O)C1 (centres unmarked) [#236],,0.131
CC(C)(C)C1CCc2c(sc(NC(=O)c3cccc(F)c3)c2C(=O)O)C1 (centres unmarked) [#83],0.38,
CC(C)(C)C1CCc2c(sc(NC(=O)c3ccc(F)cc3)c2C(=O)O)C1 (centres unmarked) [#237],,0.211
O=C(Nc1sc2c(c1C(=O)O)CCN(c1ccc(F)cc1F)C2)c1ccccc1 [#56],0.15,
Cc1ccccc1C(=O)Nc1sc2c(c1C(=O)O)CCCC2 [#95],0.723,
Cc1cc(F)ccc1N1CCc2c(sc(NC(=O)c3ccccc3)c2C(=O)O)C1 [#53],0.14,
CC1CCCc2sc(NC(=O)c3ccccc3)c(C(=O)O)c21 (centres unmarked) [#88],,0.547
CC(C)(C)C1CCc2c(sc(NC(=O)c3ccccn3)c2C(=O)O)C1 (centres unmarked) [#72],0.17,
CC(C)(C)C1CCc2c(sc(NC(=O)c3ccccc3)c2C(=O)O)C1 (centres unmarked) [#66],,0.0693
CC(C)(C)C1CCc2c(sc(NC(=O)c3ccc4c(c3)OC(F)(F)O4)c2C(=O)O)C1 (centres unmarked) [#99],0.83,
CC1CCCc2sc(NC(=O)c3ccc(N4CCOCC4)cc3)c(C(=O)O)c21 (centres unmarked) [#70],0.145,
COCCNc1ccc(C(=O)Nc2sc3c(c2C(=O)O)CCC3)cc1 [#231],0.89,
O=C(Nc1sc2c(c1C(=O)O)CCC(c1ccccc1)C2)c1ccccc1 (centres unmarked) [#47B],,0.07
Cc1ccccc1C(=O)Nc1sc2cc(C(C)(C)C)ccc2c1C(=O)O [#111],1.37,
COc1ccc(C(=O)Nc2sc3c(c2C(=O)O)CCC(c2ccccc2)C3)cc1OC (centres unmarked) [#48],0.09,

Compound,IC50 [1] [µM],IC50 [µM]
Cc1ccccc1C(=O)Nc1sc2c(c1C(=O)O)CCC(C(C)(C)C)C2 (centres unmarked) [#239],,0.548
CC1(C)Cc2c(sc(NC(=O)c3ccccc3)c2C(=O)O)C(C)(C)O1 [#175],0.74,
CC(C)(C)C(=O)Nc1sc2c(c1C(=O)O)CCC(c1ccccc1)C2 (centres unmarked) [#106],1.1,
COc1ccc(C(=O)Nc2sc3c(c2C(=O)O)CCC(C(C)(C)C)C3)nc1 (centres unmarked) [#91],0.62,
COC1CN(c2ccc(C(=O)Nc3sc4c(c3C(=O)O)CCC4)cc2)C1 [#207],0.38,
CC(C)(C)C1CCc2c(sc(NC(=O)c3ccc(N4CCOCC4)cc3)c2C(=O)O)C1 (centres unmarked) [#9],0.07,
COc1ccc(C(=O)Nc2sc3c(c2C(=O)O)CCC(C(C)(C)C)C3)cc1OC (centres unmarked) [#3],0.055,
Cn1cc(C(=O)Nc2sc3c(c2C(=O)O)CCC(C(C)(C)C)C3)cn1 (centres unmarked) [#101],0.943,
CC1CCCc2sc(NC(=O)c3cccc(OC(F)F)c3)c(C(=O)O)c21 (centres unmarked) [#102],0.97,
O=C(Nc1sc2c(c1C(=O)O)CCC(c1ccccc1)C2)c1ccc(O)cc1 (centres unmarked) [#49],0.41,
CC(C)(C)C1CCc2c(sc(NC(=O)Cc3ccccc3)c2C(=O)O)C1 (centres unmarked) [#125],2.8,
CC(C)(C)C1CCc2c(sc(NC(=O)c3ccc(OC(F)F)cc3)c2C(=O)O)C1 (centres unmarked) [#7],0.0346,
CC(C)(C)OC(=O)NCCCOc1ccc(C(=O)Nc2sc3c(c2C(=O)O)CCC(C(C)(C)C)C3)cc1 (centres unmarked) [#11],0.14,
Cc1ccccc1C(=O)Nc1sc2c(c1C(=O)O)CCC(C(C)(C)C)C2 (centres unmarked) [#87],,0.445
CC(=O)Nc1ccc(C(=O)Nc2sc3c(c2C(=O)O)CCC(C(C)(C)C)C3)cc1 (centres unmarked) [#93],0.66,
CC1(C)Cc2c(sc(NC(=O)c3ccc(NC4CCOCC4)cc3)c2C(=O)O)C(C)(C)O1 [#232],1.38,
COc1ccc(C(=O)Nc2sc3c(c2C(=O)O)CC(C)(C)OC3)cc1OC [#119],2.2,
CC(C)(C)C1CCc2c(sc(NC(=O)c3ccncc3)c2C(=O)O)C1 (centres unmarked) [#123],2.7,
CC1CCCc2sc(NC(=O)c3ccccc3)c(C(=O)O)c21 (centres unmarked) [#79],,0.292
